Active and inactive are the calls of the source. The calls are words filed in the database; no cut-off is given here.
Key:
[1] = tested on: Leptospira interrogans serovar Portlandvere; assay: Antimicrobial activity against Leptospira interrogans serovar Portlandvere infected golden Syrian hamster model of acute lethal leptospirosis assessed as survival at 5 mg/kg/day, ip once daily for 5 days administered 2 day after infection; format: functional; details: for survival at 5 mg/kg/day: route intraperitoneal
[2] = tested on: Leptospira interrogans serovar Portlandvere; assay: Antimicrobial activity against Leptospira interrogans serovar Portlandvere infected golden Syrian hamster model of acute lethal leptospirosis assessed as survival at 50 mg/kg/day, ip once daily for 5 days administered 2 day after infection; format: functional; details: route intraperitoneal
[3] = tested on: Leptospira interrogans serovar Portlandvere; assay: Antimicrobial activity against Leptospira interrogans serovar Portlandvere infected golden Syrian hamster model of acute lethal leptospirosis assessed as survival at 25 mg/kg/day, ip once daily for 5 days administered 2 day after infection; format: functional; details: route intraperitoneal
Syrian golden hamster = assay: Toxicity against Leptospira interrogans serovar Portlandvere infected golden Syrian hamster model of acute lethal leptospirosis assessed as induction of diarrhea at 50 mg/kg/day, ip once daily for 5 days administered 2 day after infection; format: organism-based, Mesocricetus auratus; set-up: route intraperitoneal; details: in vivo

Row | Structure (SMILES) | Activity [1] | survival at 50 mg/kg/day [2] [%] | survival at 25 mg/kg/day [3] [%] | Activity (Syrian golden hamster) | survival at 5 mg/kg/day [1] [%]
1 | C[C@H]1c2cccc(O)c2C(=O)C2=C(O)[C@]3(O)C(=O)C(C(N)=O)=C(O)[C@@H](N(C)C)[C@@H]3[C@@H](O)[C@@H]21 | Active |  |  |  | 
2 | O=C(O)c1cn(C2CC2)c2cc(N3CCNCC3)c(F)cc2c1=O [CIPROFLOXACIN] | Active | 90 | 60 |  | 
3 | COc1c(N2CCNC(C)C2)c(F)cc2c(=O)c(C(=O)O)cn(C3CC3)c12 (stereo unspecified) [GATIFLOXACIN] |  | 60 | 100 | Toxic | 90
4 | C[C@H]1COc2c(N3CCN(C)CC3)c(F)cc3c(=O)c(C(=O)O)cn1c23 [LEVOFLOXACIN] |  | 95 | 95 |  | 40
